Measurements published in PubChem BioAssay (NCI).
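Compound exposure: 48 hours, 5 concentrations, 96-well plates. Here, GI50 denotes the concentration required for 50% inhibition of growth. TGI marks complete inhibition of growth.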

Columns and labels:
Assay in all cases: NCI anticancer screen, dose series, 48 h
[1] = system: HOP-62 NSCLC
[2] = system: PC-3 prostate
[3] = system: OVCAR-8 ovarian
[4] = system: ACHN renal
[5] = system: NCI/ADR-RES ovarian
[6] = system: HCT-15 colon
[7] = system: SR leukemia
[8] = system: 786-0 renal
[9] = system: RXF 393 renal
[10] = system: A498 renal
[11] = system: EKVX NSCLC
[12] = system: SNB-75 CNS
[13] = system: NCI-H226 lung
[14] = system: OVCAR-5 ovarian
[15] = system: TK-10 renal
[16] = system: K-562 leukemia
[17] = system: CCRF-CEM leukemia
[18] = system: HT29 colon
[19] = system: SN12C renal
[20] = system: UACC-257 melanoma
[21] = system: T-47D breast
[22] = system: NCI-H522 lung
[23] = system: LOX IMVI melanoma
[24] = system: SF-268 CNS
[25] = system: M14 melanoma
[26] = system: UACC-62 melanoma
[27] = system: U251 CNS
[28] = system: RPMI-8226 leukemia
[29] = system: SK-OV-3 ovarian
[30] = system: MDA-MB-435
[31] = system: IGROV1 ovarian
[32] = system: SW-620 colon
[33] = system: DU-145 prostate
[34] = system: HOP-92 NSCLC
[35] = system: MALME-3M melanoma
[36] = system: HL-60(TB) leukemia
[37] = system: SK-MEL-2 melanoma
[38] = system: SF-295 CNS
[39] = system: HCC-2998 colon
[40] = system: NCI-H460 lung
[41] = system: OVCAR-4 ovarian
[42] = system: A549 NSCLC
[43] = system: SK-MEL-28 melanoma
[44] = system: SF-539 CNS
[45] = system: UO-31 renal
[46] = system: OVCAR-3 ovarian
[47] = system: MOLT-4 leukemia
[48] = system: SNB-19 CNS
[49] = system: SK-MEL-5 melanoma
[50] = system: HS 578T breast
[51] = system: MCF7 breast
[52] = system: CAKI-1 renal
[53] = system: NCI-H23 lung
[54] = system: MDA-MB-231 breast
[55] = system: COLO 205 colon
[56] = system: KM12 colon
[57] = system: BT-549 breast
[58] = system: HCT-116 colon

Compound: CCN1CCC[C@H]1c1cc(O)c2c(c1OC)C[C@H]1C[C@H]3[C@H](N)C(=O)C(C(N)=O)=C(O)[C@@]3(O)C(=O)C1=C2O
- GI50 [1]: 51.7 nM
- TGI [1]: 1670 nM
- GI50 [2]: 151 nM
- TGI [2]: 8760 nM
- GI50 [3]: 58.7 nM
- TGI [3]: 3010 nM
- GI50 [4]: 51.7 nM
- TGI [4]: 802 nM
- GI50 [5]: 435 nM
- TGI [5]: > 61500 nM
- GI50 [6]: 54.7 nM
- TGI [6]: 5170 nM
- GI50 [7]: 43.6 nM
- TGI [7]: 940 nM
- GI50 [8]: 50.4 nM
- TGI [8]: 2190 nM
- GI50 [9]: 31.2 nM
- TGI [9]: 247 nM
- GI50 [10]: 31.5 nM
- TGI [10]: 200 nM
- GI50 [11]: 203 nM
- TGI [11]: 3540 nM
- GI50 [12]: 60.9 nM
- TGI [12]: 1580 nM
- GI50 [13]: 216 nM
- TGI [13]: 3960 nM
- GI50 [14]: 187 nM
- TGI [14]: 4120 nM
- GI50 [15]: 62.6 nM
- TGI [15]: 2420 nM
- GI50 [16]: 59.9 nM
- TGI [16]: > 100000 nM
- GI50 [17]: 63.4 nM
- TGI [17]: 1730 nM
- GI50 [18]: 112 nM
- TGI [18]: 5430 nM
- GI50 [19]: 68.2 nM
- TGI [19]: 1500 nM
- GI50 [20]: 126 nM
- TGI [20]: 2110 nM
- GI50 [21]: 44.8 nM
- TGI [21]: 1470 nM
- GI50 [22]: 56.2 nM
- TGI [22]: 799 nM
- GI50 [23]: 38.6 nM
- TGI [23]: 1230 nM
- GI50 [24]: 70.9 nM
- TGI [24]: 5250 nM
- GI50 [25]: 49.2 nM
- TGI [25]: 1370 nM
- GI50 [26]: 66.8 nM
- TGI [26]: 1300 nM
- GI50 [27]: 44.2 nM
- TGI [27]: 1880 nM
- GI50 [28]: 41 nM
- TGI [28]: 454 nM
- GI50 [29]: 32 nM
- TGI [29]: 215 nM
- GI50 [30]: 91.7 nM
- TGI [30]: 2340 nM
- GI50 [31]: 41.9 nM
- TGI [31]: 4950 nM
- GI50 [32]: 53.6 nM
- TGI [32]: 3240 nM
- GI50 [33]: 66.4 nM
- TGI [33]: 2160 nM
- GI50 [34]: 52.2 nM
- TGI [34]: 3520 nM
- GI50 [35]: 42.3 nM
- TGI [35]: 689 nM
- GI50 [36]: 37.9 nM
- TGI [36]: 238 nM
- GI50 [37]: 33.6 nM
- TGI [37]: 158 nM
- GI50 [38]: 208 nM
- TGI [38]: 3800 nM
- GI50 [39]: 118 nM
- TGI [39]: 3010 nM
- GI50 [40]: 60.2 nM
- TGI [40]: 1900 nM
- GI50 [41]: 67.5 nM
- TGI [41]: 2730 nM
- GI50 [42]: 207 nM
- TGI [42]: 8720 nM
- GI50 [43]: 66.8 nM
- TGI [43]: 1260 nM
- GI50 [44]: 63.4 nM
- TGI [44]: 593 nM
- GI50 [45]: 52.8 nM
- TGI [45]: 2930 nM
- GI50 [46]: 130 nM
- TGI [46]: 3170 nM
- GI50 [47]: 58.7 nM
- TGI [47]: 666 nM
- GI50 [48]: 113 nM
- TGI [48]: 2040 nM
- GI50 [49]: 79.7 nM
- TGI [49]: 951 nM
- GI50 [50]: 49.5 nM
- TGI [50]: 1120 nM
- GI50 [51]: 241 nM
- TGI [51]: 6100 nM
- GI50 [52]: 29.3 nM
- TGI [52]: 620 nM
- GI50 [53]: 167 nM
- TGI [53]: 2180 nM
- GI50 [54]: 43.1 nM
- TGI [54]: 717 nM
- GI50 [55]: 58.3 nM
- TGI [55]: 682 nM
- GI50 [56]: 99.8 nM
- TGI [56]: 13200 nM
- GI50 [57]: 71.9 nM
- TGI [57]: 1280 nM
- GI50 [58]: 45.6 nM
- TGI [58]: 1960 nM
